The values below come from PubChem BioAssay (NCI).

Among the test systems are COLO 205 colon; SF-295 CNS; NCI/ADR-RES ovarian; NCI-H522 lung; SNB-75 CNS; SF-268 CNS; K-562 leukemia; HOP-62 NSCLC.
What all share (experiment): NCI tumour cell line growth inhibition, 48 h

Values joined by “and” are separate entries in the source; they are usually repeats but may differ in a detail not shown here. Equal values may be shown once.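 Cultured in 96-well plates, cells were exposed to test compound for 48 hours across five concentrations. The concentration for 50% growth inhibition is given as GI50. The concentration for full growth arrest is given as TGI.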

As to `O=S(=O)(NC1=NCCN1C(=S)SN1CCn2c1nsc2=S)c1ccccc1Cl`, the GI50 is 15.1 µM in the test with COLO 205 colon; 21.4 µM with SF-295 CNS; 27.7 µM in the test with NCI/ADR-RES ovarian; 6.08 µM in the test with NCI-H522 lung; 13.3 µM in the test with SNB-75 CNS; 13.3 µM in the test on SF-268 CNS. In addition, the GI50 with K-562 leukemia was 4.62 µM; with HOP-62 NSCLC, 17.4 µM. The TGI in the test with COLO 205 colon is 55 µM; in the test on SF-295 CNS, 61 µM; with NCI/ADR-RES ovarian, more than 100 µM; with NCI-H522 lung it was 21.9 µM; in the test on SNB-75 CNS it was 55.6 µM; in the test with SF-268 CNS it was 87.6 µM. Also, the results for the TGI in the test on K-562 leukemia and in the test with HOP-62 NSCLC were 46.3 µM and 33.9 µM, respectively.

Take `CCOC(=O)C(C(=O)OCC)C(=O)c1ccccc1C(=O)c1ccccc1`: the TGI with COLO 205 colon, in the test with SF-295 CNS, in the test with NCI/ADR-RES ovarian, in the test on NCI-H522 lung, in the test on SNB-75 CNS and in the test on SF-268 CNS was more than 100 µM in each case. In addition, the TGI with K-562 leukemia and in the test with HOP-62 NSCLC was more than 100 µM throughout.

Turning to `Clc1ccc(CNc2nccc(-c3cnn4ncccc34)n2)cc1`, the GI50 was 4.86 µM in the test on COLO 205 colon; 5.36 µM with SF-295 CNS; 6.75 µM in the test on NCI/ADR-RES ovarian; 5.85 µM in the test with NCI-H522 lung; 6.28 µM with SNB-75 CNS; 7.25 µM in the test with SF-268 CNS. In addition, the GI50 is 10.6 µM with K-562 leukemia and 7.59 µM in the test with HOP-62 NSCLC. Further, the TGI in the test on COLO 205 colon is 9.76 µM; in the test on SF-295 CNS it was more than 18.2 µM; in the test on NCI/ADR-RES ovarian, more than 25 µM; in the test on NCI-H522 lung, 19.3 µM; in the test with SNB-75 CNS, 12.8 µM; with SF-268 CNS, more than 22.7 µM. In addition, the TGI in the test on K-562 leukemia and with HOP-62 NSCLC was more than 25 µM each time.

`NS(=O)(=O)c1ccc(-n2ncc3c(Nc4ccccc4)ncnc32)cc1`: the GI50 is 21.1 µM in the test on COLO 205 colon; 16.9 µM in the test with SF-295 CNS; 19.5 µM with NCI/ADR-RES ovarian; 51.1 µM in the test on NCI-H522 lung; 33.5 µM with SNB-75 CNS; 43.1 µM in the test on SF-268 CNS. Besides, the GI50 was 4.44 µM with K-562 leukemia and 16.7 µM in the test on HOP-62 NSCLC. In addition, the TGI was more than 100 µM in the test on COLO 205 colon; 53.4 µM in the test with SF-295 CNS; 55.4 µM with NCI/ADR-RES ovarian; more than 100 µM in the test with NCI-H522 lung; more than 100 µM in the test with SNB-75 CNS; more than 100 µM with SF-268 CNS. Also, the TGI with K-562 leukemia was 37.7 µM; with HOP-62 NSCLC, 48.5 µM.

Turning to `COc1cccc(CCC(=O)c2cc3c(N)c(C(=O)Nc4cccc(Cl)c4C)sc3nc2C)c1`, the GI50 with COLO 205 colon was 0.661 µM; in the test on SF-295 CNS it was 0.407 µM; with NCI/ADR-RES ovarian it was 0.388 µM; in the test on NCI-H522 lung it was 0.368 µM; in the test with SNB-75 CNS, 0.193 µM; in the test with SF-268 CNS, 0.814 µM. For the same molecule, the GI50 in the test on K-562 leukemia is 0.396 µM; in the test with HOP-62 NSCLC it was 1.1 µM. The TGI was more than 45.9 µM with COLO 205 colon; 20.1 µM in the test on SF-295 CNS; 10.4 µM in the test on NCI/ADR-RES ovarian; 1.54 µM with SNB-75 CNS; more than 100 µM in the test with SF-268 CNS; more than 100 µM in the test with K-562 leukemia. Also, the TGI in the test with HOP-62 NSCLC is more than 100 µM.

Turning to `COc1cc(C2CC(=O)Nc3c2ccc2ccccc32)cc(Br)c1OC` (configuration not stated), the GI50 in the test with COLO 205 colon was 0.369 µM; with SF-295 CNS, 0.316 µM; in the test on NCI/ADR-RES ovarian it was 0.279 µM; in the test on NCI-H522 lung, 0.41 µM; with SNB-75 CNS, 0.224 µM; in the test with SF-268 CNS, 0.933 µM. Moreover, the GI50 in the test with K-562 leukemia is 0.349 µM; with HOP-62 NSCLC, 0.753 µM. Besides, the TGI in the test on COLO 205 colon was 1.35 µM; with NCI/ADR-RES ovarian, 1.13 µM; in the test on NCI-H522 lung it was 8.42 µM; with SNB-75 CNS, 2.43 µM; in the test on SF-268 CNS, more than 100 µM; in the test on K-562 leukemia, more than 75.7 µM. This molecule also gave a TGI in the test on HOP-62 NSCLC of more than 100 µM.

With `Cc1ncc(C(=O)Nc2ccc(CN3CCN(C)CC3)c(C(F)(F)F)c2)cc1C#Cc1c(N)ncc2ccccc12`, the GI50 with COLO 205 colon is 0.131 µM; in the test with SF-295 CNS it was 0.568 µM; with NCI/ADR-RES ovarian it was 0.67 µM; with NCI-H522 lung, 0.46 µM; in the test with SNB-75 CNS, 0.458 µM; in the test with SF-268 CNS it was 0.448 µM. The GI50 with K-562 leukemia is 0.00332 µM; in the test with HOP-62 NSCLC it was 0.524 µM. The TGI in the test on COLO 205 colon turned out to be 0.619 µM; with SF-295 CNS, 1.14 µM; in the test with NCI/ADR-RES ovarian it was 1.54 µM; in the test on NCI-H522 lung it was 0.992 µM; in the test on SNB-75 CNS it was 0.975 µM; in the test with SF-268 CNS, 1.09 µM. The figures for the TGI with K-562 leukemia and in the test with HOP-62 NSCLC were 0.453 µM and 1.4 µM, respectively.

Turning to `CN(C)CCSCCO`, the TGI with COLO 205 colon, in the test with SF-295 CNS, in the test with NCI/ADR-RES ovarian, with NCI-H522 lung, with SNB-75 CNS and in the test with SF-268 CNS was more than 100 µM each time. The TGI in the test with K-562 leukemia and in the test on HOP-62 NSCLC was more than 100 µM in each case.

As for `CC(C)C[C@H](NC(=O)[C@@H](NC(=O)c1cccc(-c2ccccc2)n1)[C@@H](C)O)B(O)O`, the GI50 in the test on COLO 205 colon is 0.00813 µM and < 0.0126 µM; with SF-295 CNS it was 0.0102 µM; in the test on NCI/ADR-RES ovarian, 0.345 µM and 0.249 µM; in the test with NCI-H522 lung, 0.00302 µM; with SNB-75 CNS it was 0.0144 µM and 0.0105 µM; in the test on SF-268 CNS it was 0.00952 µM and 0.012 µM. The GI50 was 0.00649 µM and 0.019 µM with K-562 leukemia; 0.0106 µM and < 0.0106 µM with HOP-62 NSCLC. Further, the TGI was 3.3 µM in the test with COLO 205 colon; 0.0553 µM and 0.0262 µM in the test on SF-295 CNS; 6.19 µM with NCI/ADR-RES ovarian; 0.00881 µM in the test with NCI-H522 lung; 0.0454 µM and 0.0308 µM in the test on SNB-75 CNS; 0.0436 µM with SF-268 CNS. The TGI with K-562 leukemia was 30.8 µM; in the test with HOP-62 NSCLC, 0.0358 µM and 0.0391 µM.

On to `Nc1c(C(=O)N/N=C/c2ccc(-c3cc(Cl)c(Cl)cc3Cl)o2)cnn1-c1ccnc2c(C(F)(F)F)cccc12`, for which the GI50 in the test with COLO 205 colon is 2.57 µM; in the test on SF-295 CNS it was 3.27 µM; in the test on NCI/ADR-RES ovarian, 3.58 µM; in the test on NCI-H522 lung, 3.37 µM; in the test on SNB-75 CNS, 4.01 µM; in the test with SF-268 CNS, 5.2 µM. For the same molecule, the GI50 in the test with K-562 leukemia was 3 µM; with HOP-62 NSCLC, 5.24 µM. The TGI with COLO 205 colon was 5.78 µM; in the test on SF-295 CNS it was more than 100 µM; in the test on NCI/ADR-RES ovarian it was 87.9 µM; in the test on NCI-H522 lung it was 31.1 µM; in the test on SNB-75 CNS, 53 µM; in the test with SF-268 CNS it was more than 100 µM. Further, the TGI with K-562 leukemia and with HOP-62 NSCLC was more than 100 µM throughout.
